Measurements published in patent publication US7811797B2, “α-isomaltosylglucosaccharide-forming enzyme, process and uses of the same” (Kabushiki Kaisha Hayashibara Seibutsu Kagaku Kenkyujo, priority 2000, dated 2010).

How the values were obtained:
[1] = Thermostability of aqueous cyclotetrasaccharide solution; format: physicochemical; conditions: 10% (w/v) aqueous solution, 120° C.; for Purity (%) after heating: HPLC
Procedure: After the heating, the aqueous solution was cooled under atmospheric conditions and measured for coloration degree and determined for purity on HPLC. The coloration degree was evaluated based on the absorbance in a cell with a 1-cm light pass at a wavelength of 480 nm.

[2] = pH stability of cyclotetrasaccharide solution; format: physicochemical; conditions: 4% (w/v), 100° C. for 24 hours; for Purity (%) after heating: HPLC
Procedure: Eight milliliters of each solution was placed in a glass test tube, followed by sealing the test tube and heating the solution at 100° C. for 24 hours. After cooling, each solution was measured for coloration degree and determined for purity on HPLC. The coloration degree was evaluated based on the absorbance in a cell with a 1-cm light pass at a wavelength of 480 nm.

Inclusion action = format: physicochemical
Procedure: To 100 g of the aqueous solution was added 2 g of methanol, 3 g of ethanol, or 4.6 g acetic acid to be included by the cyclotetrasaccharide. Thereafter, each of the resulting solutions was filtered to remove non-included products, and the filtrate was dried in vacuo. As a control, similar inclusion products were prepared by using “ISOELITE™ P”, a branched cyclodextrin commercialized by Maruha K.K., Tokyo, Japan, which were known to have inclusion ability.
To measure the amount of the inclusion products in the resulting lyophilized powders, one gram of each powder was dissolved in five milliliters water and extracted after admixing with five milliliters of diethylether. The extraction was repeated, and the resulting extracts were quantified on gas chromatography.

[3] = tested on: α-isomaltosylglucosaccharide-forming enzyme; assay: Action on saccharides (substrates), Enzyme of Strain N75; format: biochemical, Bacillus globisporus N75; set-up: key: −: it showed no change; +: it showed a slight reduction of the color spot of the substrate and the formation of other reaction product; ++: it showed a high reduction of the color spot of the substrate and the formation of other reaction product; +++: it showed a substantial disappearance of the substrate spot and the formation of other reaction product; conditions: two units/g substrate, substrate 2% (w/v), 30° C., pH 6.0, 24 hours, TLC
Summary of the method: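 Purified enzyme from each strain was added at 2 units/g substrate to each of 24 saccharides at 2% (w/v). Incubation ran 24 h at 30° C, pH 6.0, or pH 8.4 for the A19 enzyme. TLC compared reaction mixtures before and after incubation to show whether each substrate was acted on.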

OCC1OC2OCC3O[C@H](O[C@H]4C(O)C(CO)OC(OCC5O[C@H](O[C@@H](C1O)C2O)C(O)C(O)[C@@H]5O)C4O)C(O)C(O)[C@@H]3O (stereo partly drawn) [Cyclotetrasaccharide, cyclo{→6)-α-D-glucopyranosyl-(1→3)-α-D-glucopyranosyl-(1→6)-α-D-glucopyranosyl-(1→3)-α-D-glucopyransoyl-(1→}]
17.26 mg/g lyophilized powder: Inclusion amount (mg/g lyophilized powder) (Inclusion action; inclusion product Ethanol)
93%: Purity (%) after heating ([2]; pH 2.0 (Acetate buffer))
6.71 mg/g lyophilized powder: Inclusion amount (mg/g lyophilized powder) (Inclusion action; inclusion product Methanol)
0.00 A480 nm: Coloration degree (A480 nm) ([1]; heating time 0 min) | Coloration degree (A480 nm) ([1]; heating time 30 min) | Coloration degree (A480 nm) ([1]; heating time 60 min) | Coloration degree (A480 nm) ([1]; heating time 90 min) | Coloration degree (A480 nm) ([2]; pH 2.0 (Acetate buffer)) | Coloration degree (A480 nm) ([2]; pH 3.0 (Acetate buffer)) | Coloration degree (A480 nm) ([2]; pH 4.0 (Acetate buffer)) | Coloration degree (A480 nm) ([2]; pH 5.0 (Acetate buffer)) | Coloration degree (A480 nm) ([2]; pH 6.0 (Tris-HCl buffer)) | Coloration degree (A480 nm) ([2]; pH 7.0 (Tris-HCl buffer)) | Coloration degree (A480 nm) ([2]; pH 8.0 (Tris-HCl buffer)) | Coloration degree (A480 nm) ([2]; pH 9.0 (Ammonium buffer)) | Coloration degree (A480 nm) ([2]; pH 10.0 (Ammonium buffer))
about 2 folds: inclusion ability relative to that of the branched cyclodextrin (Inclusion action; by weight)
67.74 mg/g lyophilized powder: Inclusion amount (mg/g lyophilized powder) (Inclusion action; inclusion product Acetic acid)
100%: Purity (%) after heating ([1]; heating time 0 min) | Purity (%) after heating ([1]; heating time 30 min) | Purity (%) after heating ([1]; heating time 60 min) | Purity (%) after heating ([1]; heating time 90 min) | Purity (%) after heating ([2]; pH 3.0 (Acetate buffer)) | Purity (%) after heating ([2]; pH 4.0 (Acetate buffer)) | Purity (%) after heating ([2]; pH 5.0 (Acetate buffer)) | Purity (%) after heating ([2]; pH 6.0 (Tris-HCl buffer)) | Purity (%) after heating ([2]; pH 7.0 (Tris-HCl buffer)) | Purity (%) after heating ([2]; pH 8.0 (Tris-HCl buffer)) | Purity (%) after heating ([2]; pH 9.0 (Ammonium buffer)) | Purity (%) after heating ([2]; pH 10.0 (Ammonium buffer))

OC[C@@H](O)[C@@H](O[C@H]1O[C@H](CO)[C@@H](O)[C@H](O)[C@H]1O)[C@H](O)[C@@H](O)CO [Maltitol, reference compound]
−: Enzymatic action, Enzyme of Strain N75 [3]
